{
  "source": "ChEMBL document CHEMBL4184201",
  "about": "“Inhibition of protein tyrosine phosphatase 1B (PTP1B) and α-glucosidase by xanthones from Cratoxylum cochinchinense, and their kinetic characterization” (Bioorg Med Chem, 2018)",
  "note": "Activity calls are given as the source filed them. The rule behind the calls is not given here.",
  "data": [
    {"biological_target": "T1, Alpha glucosidase (Homo sapiens, UniProt O43451+P10253+P14410+Q2M2H8)", "test": "Mixed type inhibition of alpha-glucosidase (unknown origin) using PNP-G as substrate by Lineweaver-Burk plot analysis", "format": "protein assay", "settings": "not given", "values": [
      {"smiles": "CC(C)=CCC/C(C)=C/COc1ccc2oc3cc(O)cc(O)c3c(=O)c2c1", "Mixed-type inhibition (qualitative)": "Active"},
      {"smiles": "C=C(C)C(O)Cc1c(O)c(C/C=C(\\C)CCC=C(C)C)c2oc3ccc(O)cc3c(=O)c2c1O", "note": "(stereo unspecified)", "Mixed-type inhibition (qualitative)": "Active"},
      {"smiles": "C=C(C)C(O)CC/C(C)=C/COc1ccc2oc3cc(O)cc(O)c3c(=O)c2c1", "note": "(stereo unspecified)", "Mixed-type inhibition (qualitative)": "Active"},
      {"smiles": "COc1c(O)ccc2c(=O)c3c(O)cc4c(c3oc12)C(C)(C)C(CO)O4", "note": "(stereo unspecified)", "Mixed-type inhibition (qualitative)": "Active"},
      {"smiles": "COc1c(O)cc2oc3cc(O)c(CC=C(C)C)c(O)c3c(=O)c2c1CC=C(C)C", "note": "[MANGOSTIN]", "Mixed-type inhibition (qualitative)": "Active"},
      {"smiles": "CC(C)=CCc1c(O)cc2oc3cc(O)c(O)c(CC=C(C)C)c3c(=O)c2c1O", "inhibition": "Active"}
    ]},
    {"biological_target": "T1, Alpha glucosidase", "test": "Inhibition of alpha-glucosidase (unknown origin) using PNP-G as substrate by Dixon plot analysis", "format": "protein assay", "settings": "not given", "units": {"Ki": "µM"}, "values": [
      {"smiles": "CC(C)=CCC/C(C)=C/COc1ccc2oc3cc(O)cc(O)c3c(=O)c2c1", "Ki": 17.7},
      {"smiles": "C=C(C)C(O)Cc1c(O)c(C/C=C(\\C)CCC=C(C)C)c2oc3ccc(O)cc3c(=O)c2c1O", "note": "(stereo unspecified)", "Ki": 4.2},
      {"smiles": "C=C(C)C(O)CC/C(C)=C/COc1ccc2oc3cc(O)cc(O)c3c(=O)c2c1", "note": "(stereo unspecified)", "Ki": 13},
      {"smiles": "COc1c(O)ccc2c(=O)c3c(O)cc4c(c3oc12)C(C)(C)C(CO)O4", "note": "(stereo unspecified)", "Ki": 33.9},
      {"smiles": "COc1c(O)cc2oc3cc(O)c(CC=C(C)C)c(O)c3c(=O)c2c1CC=C(C)C", "note": "[MANGOSTIN]", "Ki": 7.3},
      {"smiles": "CC(C)=CCc1c(O)cc2oc3cc(O)c(O)c(CC=C(C)C)c3c(=O)c2c1O", "Ki": 1.4}
    ]},
    {"biological_target": "T2, Tyrosine-protein phosphatase non-receptor type 1 (Homo sapiens, UniProt P18031)", "T2 sequence (P18031 whole entry)": "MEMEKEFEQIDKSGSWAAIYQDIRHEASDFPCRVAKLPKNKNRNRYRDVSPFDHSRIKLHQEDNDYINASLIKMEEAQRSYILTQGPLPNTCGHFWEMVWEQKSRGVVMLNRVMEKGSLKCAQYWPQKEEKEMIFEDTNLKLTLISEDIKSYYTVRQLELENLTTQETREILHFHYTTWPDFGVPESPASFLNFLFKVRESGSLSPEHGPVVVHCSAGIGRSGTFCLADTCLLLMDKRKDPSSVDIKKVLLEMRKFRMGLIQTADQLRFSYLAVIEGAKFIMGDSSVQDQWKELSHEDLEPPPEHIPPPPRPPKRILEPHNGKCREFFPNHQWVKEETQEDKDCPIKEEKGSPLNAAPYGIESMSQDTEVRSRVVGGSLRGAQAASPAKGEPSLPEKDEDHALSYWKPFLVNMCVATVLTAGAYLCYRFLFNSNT", "test": "Time dependent inhibition of recombinant human PTP1B (1 to 322 residues) expressed in Escherichia coli using P-NPP as substrate preincubated with enzyme for 30 mins by UV-spectrophotometric method", "settings": "read-out: Ki(app)", "units": {"Ki": "µM"}, "values": [
      {"smiles": "C=C(C)C(O)Cc1c(O)c(C/C=C(\\C)CCC=C(C)C)c2oc3ccc(O)cc3c(=O)c2c1O", "note": "(stereo unspecified)", "Ki": 2.4}
    ]},
    {"biological_target": "T3, Tyrosine-protein phosphatase non-receptor type 1 (Homo sapiens) (UniProt P18031)", "T3 sequence (whole entry)": "T2 sequence (P18031 whole entry)", "test": "Reversible inhibition of recombinant human PTP1B (1 to 322 residues) expressed in Escherichia coli using P-NPP as substrate after 10 mins by spectrophotometry", "settings": "not given", "values": [
      {"smiles": "C=C(C)C(O)Cc1c(O)c(C/C=C(\\C)CCC=C(C)C)c2oc3ccc(O)cc3c(=O)c2c1O", "note": "(stereo unspecified)", "inhibition": "Active"}
    ]},
    {"biological_target": "T1, Alpha glucosidase", "test": "Inhibition of alpha-glucosidase (unknown origin) using PNP-G as substrate measured for 15 mins by spectrophotometry", "format": "protein assay", "settings": "not given", "units": {"IC50": "µM"}, "values": [
      {"smiles": "CC(C)=CCC/C(C)=C/COc1ccc2oc3cc(O)cc(O)c3c(=O)c2c1", "IC50": 20.6},
      {"smiles": "C=C(C)C(O)Cc1c(O)c(C/C=C(\\C)CCC=C(C)C)c2oc3ccc(O)cc3c(=O)c2c1O", "note": "(stereo unspecified)", "IC50": 4.8},
      {"smiles": "C=C(C)C(O)CC/C(C)=C/COc1ccc2oc3cc(O)cc(O)c3c(=O)c2c1", "note": "(stereo unspecified)", "IC50": 13.7},
      {"smiles": "COc1c(O)ccc2c(=O)c3c(O)cc4c(c3oc12)C(C)(C)C(CO)O4", "note": "(stereo unspecified)", "IC50": 72.7},
      {"smiles": "COc1c(O)cc2oc3cc(O)c(CC=C(C)C)c(O)c3c(=O)c2c1CC=C(C)C", "note": "[MANGOSTIN]", "IC50": 5.7},
      {"smiles": "CC(C)=CCc1c(O)cc2oc3cc(O)c(O)c(CC=C(C)C)c3c(=O)c2c1O", "IC50": 1.7}
    ]},
    {"biological_target": "T1, Alpha glucosidase", "test": "Mixed type inhibition of alpha-glucosidase (unknown origin) assessed as enzyme-substrate-inhibitor complex formation using PNP-G as substrate by Lineweaver-Burk plot analysis", "format": "protein assay", "settings": "not given", "units": {"Ki": "µM"}, "values": [
      {"smiles": "C=C(C)C(O)Cc1c(O)c(C/C=C(\\C)CCC=C(C)C)c2oc3ccc(O)cc3c(=O)c2c1O", "note": "(stereo unspecified)", "Ki": 6.6}
    ]},
    {"biological_target": "T1, Alpha glucosidase", "test": "Reversible inhibition of alpha-glucosidase (unknown origin) using PNP-G as substrate measured for 15 mins by spectrophotometry", "format": "protein assay", "settings": "not given", "values": [
      {"smiles": "C=C(C)C(O)Cc1c(O)c(C/C=C(\\C)CCC=C(C)C)c2oc3ccc(O)cc3c(=O)c2c1O", "note": "(stereo unspecified)", "inhibition": "Active"}
    ]},
    {"biological_target": "T2, Tyrosine-protein phosphatase non-receptor type 1", "test": "Inhibition of recombinant human PTP1B (1 to 322 residues) expressed in Escherichia coli using P-NPP as substrate after 10 mins by spectrophotometry", "settings": "not given", "units": {"IC50": "µM"}, "values": [
      {"smiles": "CC(C)=CCC/C(C)=C/COc1ccc2oc3cc(O)cc(O)c3c(=O)c2c1", "IC50": 35.1},
      {"smiles": "C=C(C)C(O)Cc1c(O)c(C/C=C(\\C)CCC=C(C)C)c2oc3ccc(O)cc3c(=O)c2c1O", "note": "(stereo unspecified)", "IC50": 2.4},
      {"smiles": "C=C(C)C(O)CC/C(C)=C/COc1ccc2oc3cc(O)cc(O)c3c(=O)c2c1", "note": "(stereo unspecified)", "IC50": 25.2},
      {"smiles": "COc1c(O)ccc2c(=O)c3c(O)cc4c(c3oc12)C(C)(C)C(CO)O4", "note": "(stereo unspecified)", "IC50": 52.5},
      {"smiles": "COc1c(O)cc2oc3cc(O)c(CC=C(C)C)c(O)c3c(=O)c2c1CC=C(C)C", "note": "[MANGOSTIN]", "IC50": 5.5},
      {"smiles": "CC(C)=CCc1c(O)cc2oc3cc(O)c(O)c(CC=C(C)C)c3c(=O)c2c1O", "IC50": 2.8}
    ]},
    {"biological_target": "T3, Tyrosine-protein phosphatase non-receptor type 1 (Homo sapiens)", "test": "Competitive inhibition of recombinant human PTP1B (1 to 322 residues) expressed in Escherichia coli using P-NPP as substrate after 10 mins by Lineweaver-Burk plot analysis", "settings": "not given", "values": [
      {"smiles": "CC(C)=CCC/C(C)=C/COc1ccc2oc3cc(O)cc(O)c3c(=O)c2c1", "inhibition type (Lineweaver-Burk)": "Active"},
      {"smiles": "C=C(C)C(O)Cc1c(O)c(C/C=C(\\C)CCC=C(C)C)c2oc3ccc(O)cc3c(=O)c2c1O", "note": "(stereo unspecified)", "inhibition type (Lineweaver-Burk)": "Active"},
      {"smiles": "C=C(C)C(O)CC/C(C)=C/COc1ccc2oc3cc(O)cc(O)c3c(=O)c2c1", "note": "(stereo unspecified)", "inhibition type (Lineweaver-Burk)": "Active"},
      {"smiles": "COc1c(O)ccc2c(=O)c3c(O)cc4c(c3oc12)C(C)(C)C(CO)O4", "note": "(stereo unspecified)", "inhibition type (Lineweaver-Burk)": "Active"},
      {"smiles": "COc1c(O)cc2oc3cc(O)c(CC=C(C)C)c(O)c3c(=O)c2c1CC=C(C)C", "note": "[MANGOSTIN]", "inhibition type (Lineweaver-Burk)": "Active"},
      {"smiles": "CC(C)=CCc1c(O)cc2oc3cc(O)c(O)c(CC=C(C)C)c3c(=O)c2c1O", "inhibition type (Lineweaver-Burk)": "Active"}
    ]},
    {"biological_target": "T3, Tyrosine-protein phosphatase non-receptor type 1 (Homo sapiens)", "test": "Inhibition of recombinant human PTP1B (1 to 322 residues) expressed in Escherichia coli assessed as forward rate constant for enzyme-inhibitor bound conformation using P-NPP as substrate incubated with enzyme for 30 mins by UV-spectrophotometric method", "settings": "not given", "units": {"K": "M⁻¹ s⁻¹"}, "values": [
      {"smiles": "C=C(C)C(O)Cc1c(O)c(C/C=C(\\C)CCC=C(C)C)c2oc3ccc(O)cc3c(=O)c2c1O", "note": "(stereo unspecified)", "K": 50000}
    ]},
    {"biological_target": "T2, Tyrosine-protein phosphatase non-receptor type 1", "test": "Inhibition of recombinant human PTP1B (1 to 322 residues) expressed in Escherichia coli using P-NPP as substrate after 10 mins by Dixon plot analysis", "settings": "not given", "units": {"Ki": "µM"}, "values": [
      {"smiles": "CC(C)=CCC/C(C)=C/COc1ccc2oc3cc(O)cc(O)c3c(=O)c2c1", "Ki": 19.9},
      {"smiles": "C=C(C)C(O)Cc1c(O)c(C/C=C(\\C)CCC=C(C)C)c2oc3ccc(O)cc3c(=O)c2c1O", "note": "(stereo unspecified)", "Ki": "2.1 to 2.4"},
      {"smiles": "C=C(C)C(O)CC/C(C)=C/COc1ccc2oc3cc(O)cc(O)c3c(=O)c2c1", "note": "(stereo unspecified)", "Ki": 29.5},
      {"smiles": "COc1c(O)ccc2c(=O)c3c(O)cc4c(c3oc12)C(C)(C)C(CO)O4", "note": "(stereo unspecified)", "Ki": 32.7},
      {"smiles": "COc1c(O)cc2oc3cc(O)c(CC=C(C)C)c(O)c3c(=O)c2c1CC=C(C)C", "note": "[MANGOSTIN]", "Ki": 3.2},
      {"smiles": "CC(C)=CCc1c(O)cc2oc3cc(O)c(O)c(CC=C(C)C)c3c(=O)c2c1O", "Ki": 2.7}
    ]}
  ]
}
